From US8592421B2, “Cyclic bioisosters of purine system derivatives and a pharmaceutical composition based thereon” (priority 2003, dated 2013)

Assays:
[1] = test system: embryonic fibroblasts of mouse NIH-3T3; assay: Effect on endocellular pHi of fibroblasts (microspectrofluorimetry with FDA / BCECF-AM); format: cell-based; details: for rise of pHi: fibroblasts in an attached spread state; for change of pHi: medium DME without blood serum, 20 minutes; for increase of pHi of cytosol: medium with 10.0% blood serum, 20 minutes after addition
Description: The effect of the compounds according to the invention on the endocellular pH, embryonic fibroblasts of mouse NIH-3T3 supplied by the All-Russian Collection of Cellular Cultures of the Institute of Cytology of the Russian Academy of Sciences St. Petersburg was investigated. The cells were grown in the DMEM (Sigma) medium containing 2.2 g/l of sodium bicarbonate with addition of 80.0 mkg/ml of gentamicin and 10.0% embryonal veal serum at a temperature of 37° C. in an atmosphere containing 5.0% of carbon dioxide. For these experiments use was also made of a medium buffer with 5.0 mM of HEPES and 15.0 mM of sodium bicarbonate without serum or with addition of 5.0% serum. The cells were calculated with the help of a hemocytometer. A share of the dead cells was determined by colouring trypan blue.
The measurements of the endocellular pHi were carried out with the help of colorants FDA (Sigma) and BCECF-AM (Calbiochem) on a microspectrofluorimeter by a standard technique (Koshevoy Yu. V., Akatov V. S., Grobova M. E. Microspectrofluorimeter for measuring endocellular pH (micro pH)”. Devices and equipment for studies in the field of physical-and-chemical biology and biotechnology. Pushchino, 1990. P. 8-14).
The cells at a temperature of 37° C. were colored within 5 minutes with 5.0 mkM PDA that before the colouring was prepared from a 10.0 mM solution in acetone by dilution for 30 minutes in a phosphatic buffer to 0.1 mM or 2.0 mkM 1.0 mM solution BCECF-AM in DMSO.
The two-wave method of determining pHi was used based on the ratio intensities of fluorescence of the cells on two wavelengths (Akatov V. S. et all), “Endocellular pH and substrate dependence of proliferation of fibroblasts of Chinese hamster, Cytology, 1991, 33 (7), p. 86-94). The fluorescence was excited by light at λ=490 nm, the emission was recorded simultaneously with two photomultipliers on wavelengths λ=535 nm and λ=570 nm. The K-ratio of the fluorescence on two wavelengths was determined with a deduction of the background fluorescence of the medium near the investigated cells for 40-60 individual cells, which are then averaged taking into account the measurement error. A thermostatically controlled table was used that allowed measurements to be conducted at a temperature of 37° C. An account was taken for the photodynamic damage of the pigmented cells during long-time continuous illumination by excited light. The readings were taken from a section of the preparation exposed to light for not more than 5 minutes.
The calibration curves for determining the absolute pHi values by magnitude K were constructed using the Thomas technique (Thomas J. A., Bushbaum R. N., Zimniak A. w Racker E. “Intracellular pH measurements in Ehrlich ascites tumor cells utilizing spectroscopic probe generated in situ”, Biochemistry, 1979, v. 18, p. 2210-2218), for which case the pigmented cells treated for 5-10 minutes with carboxyacidic nigericyn (Calbiochem) at a concentration of 5-10 mkg/ml was placed in a solution with a high content of potassium—130 mM KCl, 1.0 mM MgCl2, 20.0 mM of HEPES) and with pH values from 6.2 to 7.6. The K values were measured in the media with different pH assuming that pHi of the cells equals to the pH of the medium due to the action of nigericyn, which exchanges potassium ions for protons and at a high content of potassium in the medium counterbalances the pH of the medium and cells. Calibration curves were used based on the fluorescence of same medium with addition of 5.0 mkM of fluorescence or BCECF were used to the control the stability of the of the instrument readings.
The cells were colored by pigment BCECF-AM and pHi was measured 10 minutes after incubation in the medium with an appropriate pH value. […]

[2] = Chronic toxicity of suppositories: indexes of urine; format: in vivo, rats
Description: The experiments were conducted on inbred rats.

[3] = rats, suppositories rectal, dose 50 mg/kg, 1 month after administration
[4] = rats, suppositories rectal, dose 500 mg/kg, 1 month after administration

In the case of `Nc1ncc2c(=O)[nH][nH]c(=O)c2n1` [Compound 36, 2-amino-pyrimido[4,5-d]-6H-pyridazine-5,8-dione], the “rise of pHi” value ([1]; 2.0 mkg/ml, on the average) is reported as 0.10 unit pHi, the “rise of pHi” value ([1]; 20.0 mkg/ml, on the average) is reported as 0.07 unit pHi and the “change of pHi” value ([1]; 0.02 mkg/ml) is reported as “no effect was found”. The “change of pHi” value ([1]; 0.2 mkg/ml) was “no effect was found”, the “change of pHi” value ([1]; 2.0 mkg/ml, on the average) was 0.08 unit pHi and the “change of pHi” value ([1]; 20.0 mkg/ml, on the average) was 0.08 unit pHi. For the same compound, the “change of pHi” value ([1]; 200 mkg/ml) was “no effect was found”, the “change of pHi” value ([1]; 1000 mkg/ml) was “no effect was found” and the “increase of pHi of cytosol” value ([1]; 0.02 mkg/ml) was “do not initiate a change of pH”. The “increase of pHi of cytosol” value ([1]; 0.2 mkg/ml, on the average) was 0.1 unit pH, the “increase of pHi of cytosol” value ([1]; 2.0 mkg/ml, on the average) was 0.12 unit pH and the “increase of pHi of cytosol” value ([1]; 20.0 mkg/ml) was “do not initiate a change of pH”.

For `Nc1cccc2c(=O)[nH][nH]c(=O)c12.[Na]` [Compound 15, sodium salt of 5-amino-benzo[d]-3H-pyridazine-1,4-dione], the “Bilirubin (urine)” value [2, 3] was under 5 Mkmol/l, the “Glucose (urine)” value [2, 3] was under 6 mmol/L and the “Ketone bodies (urine)” value [2, 3] was under 1 mmol/L. The “Potassium (urine)” value [2, 3] was 5.28 ± 1.5 g/L, the “Protein (urine)” value [2, 3] was 0.71 ± 0.274 g/L and the “Sodium (urine)” value [2, 3] was 1.2 ± 0.4 g/L. For the same compound, the “Urea (urine)” value [2, 3] was 413 ± 128 mmol/L, the “Urobilinogen (urine)” value [2, 3] was under 17 Mkmol/l and the “pH (urine)” value [2, 3] was 6.3 ± 0.4. For the same compound, the “Bilirubin (urine)” value [2, 4] was under 5 Mkmol/l, the “Glucose (urine)” value [2, 4] was under 6 mmol/L and the “Ketone bodies (urine)” value [2, 4] was under 1 mmol/L. The “Potassium (urine)” value [2, 4] was 6.13 ± 1.6 g/L, the “Protein (urine)” value [2, 4] was 0.87 ± 0.24 g/L and the “Sodium (urine)” value [2, 4] was 0.64 ± 0.4 g/L. The “Urea (urine)” value [2, 4] was 485 ± 131 mmol/L, the “Urobilinogen (urine)” value [2, 4] was under 17 Mkmol/l and the “pH (urine)” value [2, 4] was 6.2 ± 0.3. The “rise of pHi” value ([1]; 2.0 mkg/ml, on the average) was 0.10 unit pHi, the “rise of pHi” value ([1]; 20.0 mkg/ml, on the average) was 0.07 unit pHi and the “change of pHi” value ([1]; 0.02 mkg/ml) was “no effect was found”. The “change of pHi” value ([1]; 0.2 mkg/ml) was “no effect was found”, the “change of pHi” value ([1]; 2.0 mkg/ml, on the average) was 0.08 unit pHi and the “change of pHi” value ([1]; 20.0 mkg/ml, on the average) was 0.08 unit pHi. The “change of pHi” value ([1]; 200 mkg/ml) was “no effect was found”, the “change of pHi” value ([1]; 1000 mkg/ml) was “no effect was found” and the “increase of pHi of cytosol” value ([1]; 0.02 mkg/ml) was “do not initiate a change of pH”. For the same compound, the “increase of pHi of cytosol” value ([1]; 0.2 mkg/ml, on the average) was 0.1 unit pH, the “increase of pHi of cytosol” value ([1]; 2.0 mkg/ml, on the average) was 0.12 unit pH and the “increase of pHi of cytosol” value ([1]; 20.0 mkg/ml) was “do not initiate a change of pH”.

In the case of `O=c1[nH][nH]c(=O)c2c(Br)ncnc12.[K]` [Compound 37, potassium salt of 4-bromine-pyrimido[4,5-D]-6H-pyridazine-5,8-dione], the “Bilirubin (urine)” value [2, 3] is reported as under 5 Mkmol/l, the “Glucose (urine)” value [2, 3] is reported as under 5 mmol/L and the “Ketone bodies (urine)” value [2, 3] is reported as under 1 mmol/L. For the same compound, the “Potassium (urine)” value [2, 3] was 6.12 ± 1.4 g/L, the “Protein (urine)” value [2, 3] was 0.70 ± 0.19 g/L and the “Sodium (urine)” value [2, 3] was 1.4 ± 0.2 g/L. The “Urea (urine)” value [2, 3] was 427 ± 137 mmol/L, the “Urobilinogen (urine)” value [2, 3] was under 15 Mkmol/l and the “pH (urine)” value [2, 3] was 6.4 ± 0.4. For the same compound, the “Bilirubin (urine)” value [2, 4] was under 5 Mkmol/l, the “Glucose (urine)” value [2, 4] was under 5 mmol/L and the “Ketone bodies (urine)” value [2, 4] was under 1 mmol/L. For the same compound, the “Potassium (urine)” value [2, 4] was 6.44 ± 1.3 g/L, the “Protein (urine)” value [2, 4] was 0.72 ± 0.14 g/L and the “Sodium (urine)” value [2, 4] was 0.88 ± 0.4 g/L. For the same compound, the “Urea (urine)” value [2, 4] was 489 ± 152 mmol/L, the “Urobilinogen (urine)” value [2, 4] was under 15 Mkmol/l and the “pH (urine)” value [2, 4] was 6.2 ± 0.3.

In the case of `O=c1[nH]n([C@@H]2O[C@H](CO)[C@@H](O)[C@H]2O)c(=O)c2nc(O)cnc12.[Na].[Na]` [Compound 23, disodium salt of 2-hydroxy-7-(β-D-ribofuranosile)pyrazine[2,3—Cl]-6H-pyridazine-5,8-dione], the “rise of pHi” value ([1]; 2.0 mkg/ml, on the average) is reported as 0.10 unit pHi, the “rise of pHi” value ([1]; 20.0 mkg/ml, on the average) is reported as 0.07 unit pHi and the “change of pHi” value ([1]; 0.02 mkg/ml) is reported as “no effect was found”. For the same compound, the “change of pHi” value ([1]; 0.2 mkg/ml) was “no effect was found”, the “change of pHi” value ([1]; 2.0 mkg/ml, on the average) was 0.08 unit pHi and the “change of pHi” value ([1]; 20.0 mkg/ml, on the average) was 0.08 unit pHi. For the same compound, the “change of pHi” value ([1]; 200 mkg/ml) was “no effect was found”, the “change of pHi” value ([1]; 1000 mkg/ml) was “no effect was found” and the “increase of pHi of cytosol” value ([1]; 0.02 mkg/ml) was “do not initiate a change of pH”. For the same compound, the “increase of pHi of cytosol” value ([1]; 0.2 mkg/ml, on the average) was 0.1 unit pH, the “increase of pHi of cytosol” value ([1]; 2.0 mkg/ml, on the average) was 0.12 unit pH and the “increase of pHi of cytosol” value ([1]; 20.0 mkg/ml) was “do not initiate a change of pH”.

For `Nc1ccnc2c(=O)n([C@@H]3O[C@H](CO)[C@@H](O)[C@H]3O)[nH]c(=O)c12` [Compound 2, 4-amino-7-(β-D-ribofuranosile)pyrido[2,3-d]-6H-pyridazine-5,8-dione], the “Bilirubin (urine)” value ([2]; rat, in vivo, 50 mg/kg) was under 5 Mkmol/l, the “Glucose (urine)” value ([2]; rat, in vivo, 50 mg/kg) was under 5 mmol/L and the “Ketone bodies (urine)” value ([2]; rat, in vivo, 50 mg/kg) was under 1 mmol/L. The “Potassium (urine)” value ([2]; rat, in vivo, 50 mg/kg) was 5.78 ± 1.7 g/L, the “Protein (urine)” value ([2]; rat, in vivo, 50 mg/kg) was 0.69 ± 0.33 g/L and the “Sodium (urine)” value ([2]; rat, in vivo, 50 mg/kg) was 1.7 ± 0.3 g/L. The “Urea (urine)” value ([2]; rat, in vivo, 50 mg/kg) was 457 ± 144 mmol/L, the “Urobilinogen (urine)” value ([2]; rat, in vivo, 50 mg/kg) was under 16 Mkmol/l and the “pH (urine)” value ([2]; rat, in vivo, 50 mg/kg) was 6.1 ± 0.3. For the same compound, the “Bilirubin (urine)” value ([2]; rat, in vivo, 500 mg/kg) was under 5 Mkmol/l, the “Glucose (urine)” value ([2]; rat, in vivo, 500 mg/kg) was under 5 mmol/L and the “Ketone bodies (urine)” value ([2]; rat, in vivo, 500 mg/kg) was under 1 mmol/L. For the same compound, the “Potassium (urine)” value ([2]; rat, in vivo, 500 mg/kg) was 6.24 ± 1.8 g/L, the “Protein (urine)” value ([2]; rat, in vivo, 500 mg/kg) was 0.76 ± 0.31 g/L and the “Sodium (urine)” value ([2]; rat, in vivo, 500 mg/kg) was 1.27 ± 0.3 g/L. The “Urea (urine)” value ([2]; rat, in vivo, 500 mg/kg) was 492 ± 187 mmol/L, the “Urobilinogen (urine)” value ([2]; rat, in vivo, 500 mg/kg) was under 16 Mkmol/l and the “pH (urine)” value ([2]; rat, in vivo, 500 mg/kg) was 6.2 ± 0.2.
